Source: patent publication US11994511B2, “Biomarkers indicative of prostate cancer and treatment thereof” (UNIVERSITY OF MIAMI, priority 2017, dated 2024)

What was measured:
Format in all cases: cell-based, human
22Rv1 cells = test: Cell proliferation (cell confluence, Incucyte Zoom) and Compusyn combination index, CRPC cell line 22Rv1; settings: 72 hours; DOX 100 ng/mL [184 nM], N-9 200 ng/mL [613 nM]; 10% CSS; vs vehicle (DMSO)
Protocol: FIG. 4A: The CRPC cell line 22Rv I was cultured in 2% CSS media and was treated for 72 hours with vehicle (DMSO), doxorubicin (DOX), N9-isopropylolomoucine (N-9), or the combination of DOX and N-9 at different concentrations. Cell confluence was monitored using Incucyte Zoom System and the experiments were done with eight replicates each. The data were analyzed using Compusyn software, and a normalized isobologram was built. […] CI=1 represents additivity, CI<1 synergism, and Cl>1 antagonistic effects. […] Cell confluence was monitored using the Incucyte Zoom System. […] Cell confluence was monitored using the Incucyte Zoom System. […]
(§4) Cell proliferation: For growth assay, cells were plated in 96-well plates at 5,000 cells/well (for RWPE-1), or 7,500 cells/well (for 22Rvl, C4-2B, PC3), in 6-12 replicates. […] The Incucyte Zoom software was used to analyzed and graph the results.
To test whether inhibition of this network decreased CRPC cell proliferation, we used doxoruhicin (DOX), which inhibits TOP2A (Tacar et al., 201.3), and N9-isopropylolomoucine (N-9), which targets CCNB 1/CDK1 (Havlicek et al, 1997). […] The normalized isohologram and combination index (CI) were built and determined using Compusyn software.

RWPE-1 cells = test: Cell proliferation (cell confluence, Incucyte Zoom), non-tumorigenic prostate epithelial cell line RWPE-1; settings: 72 hours; DOX 100 ng/mL [184 nM], N-9 200 ng/mL [613 nM]; vs vehicle (DMSO)
Protocol: (§5) Cell confluence was monitored using Incucyte Zoom System and the experiments were done with eight replicates each. […] FIG. 4B: The non-tumorigenic prostate epithelial cell line RWPE1, the AR-null PC cell line PC3, and the CRPC cell lines C4-2B and 22Rv1 were treated for 72 hours with vehicle (DMSO), DOX (100 ng/mL [184 nM]), N-9 (200 ng/mL [613 nM]), or the combination of DOX (100 ng/mL [184 nM]) and N-9 (200 ng/mL [613 nM]). C4-2B and 22Rv1 cells were kept in 10% CSS media. Cell confluence was monitored using the Incucyte Zoom System. […] Cell confluence was monitored using the Incucyte Zoom System.
(§6) FIG. 19: The non-tumorigenic prostate epithelial cell line RWPE1, the AR-null PC cell line PC3, the CRPC cell lines C4-2B and 22Rvl and androgen dependent cell line LNCaP were treated for 72 hours with vehicle (DMSO), DOX (100 ng/mL [184 nM]), N-9 (200 ng/mL [613 nM]), or the combination of DOX (100 ng/mL [184 nM]) and N-9 (200 ng/mL [613 nM]). […] Cell confluence was monitored using the Incucyte Zoom System. […]
as §4

C4-2B cells = test: Cell proliferation (cell confluence, Incucyte Zoom), CRPC cell line C4-2B; settings: 72 hours; DOX 100 ng/mL [184 nM], N-9 200 ng/mL [613 nM]; 10% CSS; vs vehicle (DMSO)
Protocol: as §5, §6, §4

PC3 cells = test: Cell proliferation (cell confluence, Incucyte Zoom), AR-null PC cell line PC3; settings: 72 hours; DOX 100 ng/mL [184 nM], N-9 200 ng/mL [613 nM]; vs vehicle (DMSO)
Protocol: as §5, §6, §4

[1] = system: seven gene set (KIF20A, KIF23, TOP2A, CCNB1, CCNB2, BUB1, BUB1b) expression in LNCaP cells; test: qPCR expression of the seven gene set after androgen (R1881) stimulation, LNCaP; settings: R1881 0.1 nM, 16 hours, vs vehicle
Protocol: (§1) LNCaP and 22Rv1 cells were seeded and 24 hours later were rinsed twice with PBS and incubated in serum free media for one hour. The cells were then incubated in media containing vehicle or R1881 (0.1 nM) for 16 hours prior to RNA extraction and qPCR analysis. FKBP5 was used as a positive control. Data represent one or two independent experiments, performed in biological triplicates, showing the mean±s.e.m., and normalized to vehicle control. Significant at a p value, ** p value<0.01, *** p value<0.001.
(§2) RNA isolation and reverse transcriptase quantitative RT-qPCR: Total RNA was collected using Trizol according to the manufacturer's protocol (Life Technologies), and isolated using Direct-zol RNA MiniPrep Plus (Zymo Research, Catalog number R2072). Total RNA was reverse transcribed using a cDNA ReverseTranscription kit (Applied Biosystems, Catalog number 4368814) as per the manufacturer's protocol. TaqMan probes from Applied Biosystems for FKBP5 (Hs01561006 ml), UBE2C (Hs00964100 gl), KIF20A (Hs00993573 ml), KIF23 (Hs00370852 ml), TOP2A (Hs01032137 ml), CCNB1 (Hs01030099 ml), CCNB2 (Hs01084593 gl), BUB1 (Hs01557695 ml), BUBlb (Hs01084828 ml) and GAPDH (Hs02786624 gl) were used.
(§3) Because of the overlapping transcriptomes of full length AR and AR-V7, we examined whether full length AR also regulated the seven gene set.

[2] = system: seven gene set (KIF20A, KIF23, TOP2A, CCNB1, CCNB2, BUB1, BUB1b) expression in 22Rv1 cells; test: qPCR expression of the seven gene set after androgen (R1881) stimulation, 22Rv1; settings: 22Rv1, R1881 0.1 nM, 16 hours, vs vehicle
Protocol: as §1, §2, §3

| Compound | Effect on proliferation of 22Rv1 (22Rv1 cells) | Effect on proliferation of RWPE-1 (RWPE-1 cells) | Effect on proliferation of C4-2B (C4-2B cells) | Effect on proliferation of PC3 (PC3 cells) | Regulation of expression of the seven genes (qPCR) [1] | Regulation of expression of the seven genes (qPCR) [2] |
| --- | --- | --- | --- | --- | --- | --- |
| COc1cccc2c1C(=O)c1c(O)c3c(c(O)c1C2=O)C[C@@](O)(C(=O)CO)C[C@@H]3O[C@H]1C[C@H](N)[C@H](O)[C@H](C)O1 [DOX, Doxorubicin] | no significant effect | no significant effect | no significant effect | no significant effect | – | – |
| C[C@]1(O)CC[C@H]2[C@@H]3CCC4=CC(=O)CCC4=C3C=C[C@@]21C [R1881, methyltrienolone] | – | – | – | – | None of the seven genes are regulated | None of the seven genes are regulated |
| CC(C)n1cnc2c(NCc3ccccc3)nc(NCCO)nc21 [N-9, N9-Isopropylolomoucine] | no significant effect | no significant effect | no significant effect | no significant effect | – | – |
